# Data published in PMC7010785, “Nandrolone induces a stem cell-like phenotype in human hepatocarcinoma-derived cell line inhibiting mitochondrial respiratory activity” (Scientific Reports, 2020).
# Target: T1, mitochondrial respiratory chain complex III (CxIII, coenzyme Q-cytochrome c oxidoreductase) (Bos taurus, UniProt P00157+P13272)
# T1 construct: gene MT-CYB; native complex in mitochondria isolated from bovine heart
# Assay: spectrophotometric initial rates of cytochrome c reduction with graded decylubiquinol in isolated mitochondria; reciprocal and Dixon plots
# Format: biochemical
# Text: spectrophotometric initial rates of cytochrome c reduction with graded decylubiquinol in isolated mitochondria; reciprocal and Dixon plots on mitochondrial respiratory chain complex III (CxIII, coenzyme Q-cytochrome c oxidoreductase) | indicate a competitive modality of inhibition.
structure (smiles),measurement,value
"C[C@]12CC[C@H]3[C@@H](CCC4=CC(=O)CC[C@@H]43)[C@@H]1CC[C@@H]2O [ND, nandrolone]",Ki,~300 µM
